Measured values as given in patent publication US6664241B2, “Water-soluble amide derivatives of polyene macrolides and preparation and uses thereof” (Micrologix Biotech Inc., priority 2000, dated 2003).
Converted amounts (≈) assume the structure as drawn. Read-outs that look alike come from different tables or passages of the source.

Columns and labels:
[1] = test system: C. albicans; test: 5 day kidney bioburden evaluation in immunocompetent mice challenged with C. albicans; type: in vivo, Swiss-Webster mice; settings: intraperitoneally once daily for 5 days, immunocompetent mice, C. albicans, 50% of animals with 2 log10 reduction in kidney CFU
Description: (§1) A variety of the compounds synthesized as described in Section 5, supra, were tested in various in vivo assays, as described below. The results of the various assays are provided in TABLE 3, presented at the end of this section. In all of the in vivo assays described, the test compounds, in the form of the aspartate salts, were formulated in an aqueous vehicle (5% mannitol in sterile water; OSMITROL, Baxter Healthcare, Deerfield, Ill.), followed by appropriate dilutions. The formulations were prepared fresh before dosing.
(§2) AmB and AME were also tested for comparison. For AmB, the commercially available FUNGIZONE (Bristol-Meyers Squibb Co.) was used. Reported values are based upon the weight of the AmB active ingredient, not on the basis of the weight of the FUNGIZONE powder. AME was formulated in OSMITROL as described for the test compounds.
Various polyene macrolide amide derivatives of the invention were evaluated for their protective effect when administered intraperitoneally once daily for 5 days to immunocompetent mice challenged with live C. albicans.
C. albicans was grown on Sabouraud dextrose agar (SDA) plates for 48 hr. Colonies were harvested and washed twice by centrifugation in phosphate-buffered saline (PBS). The washed pellets were resuspended in PBS and diluted to achieve the desired number of fungi per milliliter. A portion of the inoculum was plated on SDA plates to determine the colony-forming units (CFU) per milliliter.
(§3) Swiss-Webster mice (Simonsen Laboratories, Gilroy, Calif.) were administered by intravenous injection a single inoculum (0.2 mL) containing as estimated 2.0×10^5 CFU of C. albicans. The day of inoculation was designated as study day 0. Beginning three days after injection, mice were treated intraperitoneally with vehicle alone or formulated test compound once daily for 5 consecutive days.
(§4) The mice were observed daily from study day 0 through study day 10 (3 days after the last dose). Mice found dead or euthanized in extremis were removed from the study without further processing. Surviving mice were euthanized by inhalation of CO2 on study day 10 and both kidneys from each mouse were removed. Each pair of removed kidneys was homogenized in 3 mL of ice-cold PBS containing 10% glycerol. A portion of each homogenate was used to determine log10 CFU per kidney using SDA plates (48 hours of incubation at 30° C.). Kidney log10 CFU data were analyzed using a t-test. The criterion for a statistically significant response was set at p<0.01.
(§5) For comparison, the results for AmB and AME are also provided. Efficacy was defined for individual animals as a greater than 2 log10 reduction in kidney CFU relative to the mean vehicle control value.

[2] = test system: C. albicans; test: 7 day kidney bioburden evaluation in neutropenic mice challenged with C. albicans; type: in vivo, Swiss-Webster mice; settings: intraperitoneally once daily for 7 days, 50% of animals with 2 log10 reduction in kidney CFU
Description: as §1, §2
Various polyene macrolide amide derivatives of the invention were evaluated for their protective effect when administered intraperitoneally once daily for 7 days to neutropenic mice challenged with live C. albicans.
as §3, with “made neutropenic by intravenous administration of 5-fluorouracil (150 mg/kg) on study day −1. On study day 0, all mice received” for “administered”, “5.0×10^4” for “2.0×10^5”, “the day” for “three days”, “infection (on study day 1),” for “injection,”, “compound,” for “compound”, “7” for “5”
as §4, with “day 1” for “day 0”, “day 8 (1 day” for “day 10 (3 days”, “day 8” for “day 10”
as §5

[3] = Maximum non-lethal dose (NLD), single intravenous dose in mice; type: in vivo, Swiss-Webster male mice; settings: test compounds as aspartate salts in 5% mannitol, AmB as FUNGIZONE
Description: as §1, §2
Maximum non-lethal dose (NLD) data were obtained for selected compounds. A single intravenous dose was administered to each of four mice (Swiss-Webster male mice; Simonsen Laboratories, Gilroy, Calif.) in several groups. The doses selected were based upon the NLDs of compounds of similar structures. After review of findings, higher or lower doses were administered and a NLD was determined. The results are tabulated in TABLE 3, below (NLD Acute Mice). The values for AmB and AME are provided for comparison

[4] = rats; cited from earlier work
[5] = human, in vivo; cited from earlier work
[6] = Two week range-finding toxicity study in mice; type: in vivo, CD-1 mice; settings: for NOAEL at 2 week: both sexes, CD-1, mouse, in vivo, iv
Description: as §1, §2
Various polyene macrolide amide derivatives of the invention were evaluated to characterize their potential toxicity when administered subchronically by intravenous injection.
CD-1® mice (Charles River Laboratories, Portage, Mich.) were acclimated to laboratory conditions for at least 5 days before the start of dosing. During the acclimation period, the general condition of the mice was evaluated, and those considered healthy were used. The mice were randomly assigned to treatment groups using a stratified body weight regimen. Each treatment group consisted of 3 male and 3 female mice. The mice were housed in a room with a controlled environment and provided rodent chow and water ad libitum.
On the first day of dosing, the mice were approximately 7 to 9 weeks old and weighed 22 to 30 g. Doses were administered by intravenous injection once daily on study days 1 to 5 and 8 to 12. Dosages were selected based upon data from efficacy and toxicology studies, and ranged from 1.25 to 30 mg/kg/day. Clinical observations were recorded 0.5 hr after dosing on days 1, 3, 5, 8, 10, 12 and 15, and on any day a change was observed. Body weights were recorded prior to dosing and on study days 8 and 12, and on study day 15 at the completion of the in-life phase of the study.
Animals that were found in a moribund/deteriorating clinical state were euthanized (animal designated killed in extremis) by inhalation of CO2. The day of death for any animal found dead or killed in extremis was recorded. Any animal that died prematurely was removed from the study without further processing.
One day after completion of dosing (study day 16), all surviving mice were euthanized by inhalation of CO2. Their kidneys were preserved for histopathologic examination. The maximum no-observed-adverse-effect level (NOAEL) was determined on the basis of clinical and histopathologic findings. The values for AmB and AME are provided for comparison.

[7] = test system: C. albicans; test: Minimum Inhibitory Concentrations (MICs) against C. albicans, NCCLS M27-A broth dilution; type: cell-based
Description: For each compound synthesized, Minimum Inhibitory Concentrations (MICs) against C. albicans were determined as described in Reference Method for Broth Dilution Antifungal Susceptibility Testing of Yeasts, Approved Standard, NCCLS document M27-A (ISBN 1-56238-328-0), NCCLS, 940 West Valley Road, Suite 1400, Wayne, Pa. 19087, 1997.

[8] = dogs; cited from earlier work
[9] = Ascending single-dose nephrotoxicity study in rabbits; type: in vivo, Female New Zealand white rabbits; settings: ascending single intravenous infusion doses, urine volume, BUN, creatinine
Description: as §1
AmB and AME were also tested for comparison. For AmB, the commercially available FUNGIZONE (Bristol-Meyers Squibb Co.) was used. […]
Various polyene macrolide amide derivatives of the invention were evaluated to determine the intravenous dose of administered compound that produces nephrotoxicity in rabbits. Nephrotoxicity was monitored by measuring urine volume and blood urine nitrogen (BUN) and creatinine. […]
Ascending single doses were administered by intravenous infusion into an ear vein at a rate of 0.6 mL/min. […] Body weights were recorded before each dose, as well as 2 days after the last dose. Blood samples were collected from the rabbits two days prior to the first dose (study day −2) and approximately 24 hr after each dose and analyzed for BUN and creatinine. […]

SMILES	ED50 mice 5 day [1]	ED50 mice 7 day [2]	NLD acute mice [3]	acute, nephro- and hepato-toxicity versus amphotericin B [4]	adverse effects in clinical trial [5]	NOAEL 2 week mice clinical ([6]; intravenous once daily on days 1 to 5 and 8 to 12, clinical findings)	NOAEL 2 week mice histological ([6]; intravenous once daily on days 1 to 5 and 8 to 12, histopathologic (kidney) findings)	MIC [7]	acute, nephro- and hepato-toxicity versus amphotericin B [8]	NOAEL acute rabbit [9]	ED50 ([1]; Candida albicans, ip, 120 h, read-out: ED50 mice 5 day)	ED50 ([2]; Candida albicans, ip, 168 h)	NOAEL at 2 week ([6]; NOAEL 2 week mice clinical)	NOAEL at 2 week ([6]; NOAEL 2 week mice histological)	MIC ([7]; Candida albicans, read-out: MIC)
COC(=O)[C@H]1[C@@H]2C[C@@H](O[C@@H]3O[C@H](C)[C@@H](O)[C@H](N)[C@@H]3O)/C=C/C=C/C=C/C=C/C=C/C=C/C=C/[C@H](C)[C@@H](O)[C@@H](C)[C@H](C)OC(=O)C[C@H](O)C[C@H](O)CC[C@@H](O)[C@H](O)C[C@H](O)C[C@](O)(C[C@@H]1O)O2 [AME, amphotericin B methyl ester, reference compound]	13.1 mg/kg	8.3 mg/kg	60 mg/kg	lower acute, nephro- and hepato-toxicity than amphotericin B	many patients developed progressive neurological dysfunction associated with white matter degeneration	>32 mg/kg	>32 mg/kg	0.75 µg/mL (≈ 0.799 µM)	lower acute, nephro- and hepato-toxicity than amphotericin B	7.5 mg/kg	–	–	–	–	–
CC1[C@H](C)OC(=O)C[C@H](O)C[C@H](O)CC[C@@H](O)[C@H](O)C[C@H](O)C[C@]2(O)C[C@H](O)C(C(=O)NCCN3CCCCC3)C(C[C@@H](OC3O[C@H](C)[C@@H](O)[C@H](NC[C@@]4(O)OC[C@@H](O)[C@H](O)[C@@H]4O)[C@@H]3O)/C=C/C=C/C=C/C=C/C=C/C=C/C=C/[C@H](C)[C@H]1O)O2 (stereo partly shown) [Compound 114]	–	–	40 mg/kg	–	–	–	–	–	–	–	9 mg/kg	6.1 mg/kg	9 mg/kg	9 mg/kg	4 µg/mL (≈ 3.34 µM)
